Laboratory results published in PubChem BioAssay AID1918998 (Molecular Pharmacology Branch, DTP, NCI, 2023).

System: 521955-158-R2-J5-PDC complex spheroid growth
Assay: Anticancer human tumor 521955-158-R2-J5-PDC patient-derived pancreatic carcinoma cell line growth inhibition [AhR]
Details: for IC50: curve of first compound; for viability, T/C: stronger effect = lower value
Method in brief: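 Complex tumor spheroids co-cultured with HUVEC and human MSC stroma; AhR antagonists tested in combination with standard-of-care and investigational agents. Top concentration at or near clinical Cmax (else 10 microM), half-log dilutions; growth expressed as percent test/control.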

[1] = second compound 0.1 µM, first compound 0.0316 µM
[2] = second compound 0.1 µM, first compound 0.1 µM
[3] = second compound 0.316 µM, first compound 0.0316 µM
[4] = second compound 0.316 µM, first compound 0.1 µM
[5] = second compound 1 µM, first compound 0.0316 µM
[6] = second compound 1 µM, first compound 0.1 µM
[7] = second compound 3.16 µM, first compound 0.0316 µM
[8] = second compound 3.16 µM, first compound 0.1 µM
[9] = second compound 10 µM, first compound 0.0316 µM
[10] = second compound 10 µM, first compound 0.1 µM
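Wherever viability, T/C is given: spheroids mix tumor cells with HUVEC endothelium and human MSC stroma; luminescence taken as viability surrogate after a week of drug exposure.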

Nc1ccn(C2OC(CO)C(O)C2(F)F)c(=O)n1 (stereo not given) + Cc1cncc(-c2nc(NCCc3c[nH]c4ccccc34)c3ncn(C(C)C)c3n2)c1
IC50 (second compound 0.1 µM): 571 nM
IC50 (second compound 0.316 µM): 501 nM
IC50 (second compound 1 µM): 860 nM
IC50 (second compound 3.16 µM): 967 nM
IC50 (second compound 10 µM): 604 nM
viability, T/C [1]: 67.6%
viability, T/C [2]: 65.7%
viability, T/C (second compound 0.1 µM, first compound 0.316 µM): 62.2%
viability, T/C (second compound 0.1 µM, first compound 1 µM): 38.4%
viability, T/C (second compound 0.1 µM, first compound 3.16 µM): 31.8%
viability, T/C (second compound 0.1 µM, first compound 10 µM): 24.7%
viability, T/C [3]: 87.5%
viability, T/C [4]: 80.8%
viability, T/C (second compound 0.316 µM, first compound 0.316 µM): 58.9%
viability, T/C (second compound 0.316 µM, first compound 1 µM): 34.8%
viability, T/C (second compound 0.316 µM, first compound 3.16 µM): 33.6%
viability, T/C (second compound 0.316 µM, first compound 10 µM): 22.3%
viability, T/C [5]: 104%
viability, T/C [6]: 86%
viability, T/C (second compound 1 µM, first compound 0.316 µM): 70.4%
viability, T/C (second compound 1 µM, first compound 1 µM): 42.6%
viability, T/C (second compound 1 µM, first compound 3.16 µM): 38.3%
viability, T/C (second compound 1 µM, first compound 10 µM): 25.3%
viability, T/C [7]: 116%
viability, T/C [8]: 97.5%
viability, T/C (second compound 3.16 µM, first compound 0.316 µM): 73.7%
viability, T/C (second compound 3.16 µM, first compound 1 µM): 47.7%
viability, T/C (second compound 3.16 µM, first compound 3.16 µM): 36%
viability, T/C (second compound 3.16 µM, first compound 10 µM): 26.1%
viability, T/C [9]: 151%
viability, T/C [10]: 99.3%
viability, T/C (second compound 10 µM, first compound 0.316 µM): 67.2%
viability, T/C (second compound 10 µM, first compound 1 µM): 36%
viability, T/C (second compound 10 µM, first compound 3.16 µM): 27.7%
viability, T/C (second compound 10 µM, first compound 10 µM): 22.2%

CC[C@@]1(O)C(=O)OCc2c1cc1n(c2=O)Cc2cc3c(CN(C)C)c(O)ccc3nc2-1 + Cc1cncc(-c2nc(NCCc3c[nH]c4ccccc34)c3ncn(C(C)C)c3n2)c1
IC50 (second compound 0.1 µM): 54.2 nM
IC50 (second compound 0.316 µM): 43.7 nM
IC50 (second compound 1 µM): 43.1 nM
IC50 (second compound 3.16 µM): 58.3 nM
IC50 (second compound 10 µM): > 100 nM
viability, T/C (second compound 0.1 µM, first compound 0.000316 µM): 95.1%
viability, T/C (second compound 0.1 µM, first compound 0.001 µM): 95.6%
viability, T/C (second compound 0.1 µM, first compound 0.00316 µM): 101%
viability, T/C (second compound 0.1 µM, first compound 0.01 µM): 76.8%
viability, T/C [1]: 72.3%
viability, T/C [2]: 28.1%
viability, T/C (second compound 0.316 µM, first compound 0.000316 µM): 113%
viability, T/C (second compound 0.316 µM, first compound 0.001 µM): 105%
viability, T/C (second compound 0.316 µM, first compound 0.00316 µM): 109%
viability, T/C (second compound 0.316 µM, first compound 0.01 µM): 78.8%
viability, T/C [3]: 61.6%
viability, T/C [4]: 27.1%
viability, T/C (second compound 1 µM, first compound 0.000316 µM): 117%
viability, T/C (second compound 1 µM, first compound 0.001 µM): 133%
viability, T/C (second compound 1 µM, first compound 0.00316 µM): 100%
viability, T/C (second compound 1 µM, first compound 0.01 µM): 99%
viability, T/C [5]: 56.9%
viability, T/C [6]: 25.9%
viability, T/C (second compound 3.16 µM, first compound 0.000316 µM): 155%
viability, T/C (second compound 3.16 µM, first compound 0.001 µM): 141%
viability, T/C (second compound 3.16 µM, first compound 0.00316 µM): 143%
viability, T/C (second compound 3.16 µM, first compound 0.01 µM): 111%
viability, T/C [7]: 72.6%
viability, T/C [8]: 30.5%
viability, T/C (second compound 10 µM, first compound 0.000316 µM): 214%
viability, T/C (second compound 10 µM, first compound 0.001 µM): 158%
viability, T/C (second compound 10 µM, first compound 0.00316 µM): 144%
viability, T/C (second compound 10 µM, first compound 0.01 µM): 94.5%
viability, T/C [9]: 103%
viability, T/C [10]: 38.5%

Nc1ncn(C2CC(O)C(CO)S2)c(=O)n1 (stereo not given) + Cc1cncc(-c2nc(NCCc3c[nH]c4ccccc34)c3ncn(C(C)C)c3n2)c1
IC50 (second compound 0.1 µM): > 300 nM
IC50 (second compound 0.316 µM): > 300 nM
IC50 (second compound 1 µM): > 300 nM
IC50 (second compound 3.16 µM): > 300 nM
IC50 (second compound 10 µM): > 300 nM
viability, T/C (second compound 0.1 µM, first compound 0.000949 µM): 115%
viability, T/C (second compound 0.1 µM, first compound 0.003 µM): 113%
viability, T/C (second compound 0.1 µM, first compound 0.00949 µM): 123%
viability, T/C (second compound 0.1 µM, first compound 0.03 µM): 105%
viability, T/C (second compound 0.1 µM, first compound 0.0949 µM): 93.3%
viability, T/C (second compound 0.1 µM, first compound 0.3 µM): 97.8%
viability, T/C (second compound 0.316 µM, first compound 0.000949 µM): 112%
viability, T/C (second compound 0.316 µM, first compound 0.003 µM): 112%
viability, T/C (second compound 0.316 µM, first compound 0.00949 µM): 117%
viability, T/C (second compound 0.316 µM, first compound 0.03 µM): 115%
viability, T/C (second compound 0.316 µM, first compound 0.0949 µM): 99.5%
viability, T/C (second compound 0.316 µM, first compound 0.3 µM): 93.7%
viability, T/C (second compound 1 µM, first compound 0.000949 µM): 126%
viability, T/C (second compound 1 µM, first compound 0.003 µM): 161%
viability, T/C (second compound 1 µM, first compound 0.00949 µM): 158%
viability, T/C (second compound 1 µM, first compound 0.03 µM): 125%
viability, T/C (second compound 1 µM, first compound 0.0949 µM): 125%
viability, T/C (second compound 1 µM, first compound 0.3 µM): 99%
viability, T/C (second compound 3.16 µM, first compound 0.000949 µM): 146%
viability, T/C (second compound 3.16 µM, first compound 0.003 µM): 129%
viability, T/C (second compound 3.16 µM, first compound 0.00949 µM): 122%
viability, T/C (second compound 3.16 µM, first compound 0.03 µM): 123%
viability, T/C (second compound 3.16 µM, first compound 0.0949 µM): 118%
viability, T/C (second compound 3.16 µM, first compound 0.3 µM): 128%
viability, T/C (second compound 10 µM, first compound 0.000949 µM): 145%
viability, T/C (second compound 10 µM, first compound 0.003 µM): 143%
viability, T/C (second compound 10 µM, first compound 0.00949 µM): 105%
viability, T/C (second compound 10 µM, first compound 0.03 µM): 142%
viability, T/C (second compound 10 µM, first compound 0.0949 µM): 114%
viability, T/C (second compound 10 µM, first compound 0.3 µM): 121%
